Patent US10660789B2, “1,4-dihydropyridine derivatives with HSP modulating activity” (Richter Gedeon NYRT., priority 2011, dated 2020)
Counter-ions that a name gives are not always drawn.

Experiments:
Hsp25 = assay: Other in vitro effects, Hsp25 (Table 3); assay type: cell-based, mouse and human; parameters: key: +: co-inducing activity; −: silencing activity; 0: with the experimental methods applied no other HSP modulating effects could be identified
Protocol: The Hsp co-inducing effect of the compounds on stress response was tested on B16 mouse melanoma and SHSY5Y human neuroblastoma cell lines stably transfected with Hsp promoter probing plasmids. This kind of promoter probing, using the promoter region of a given gene conjugated with fluorescent protein is used as a best and fastest test system for finding drugs which modulate the activity of the gene followed by the given promoter (Wyshocka et al., Mol. Cel. Biochem. 215:153-156, 2000).
(§1) Reporter plasmids, containing the Hsp70 and/or Hsp25 promoter conjugated to either YFP or GFP (yellow or green fluorescent protein), were stably transfected into the cells and the expression of YFP or GFP was followed by flow cytometry. Cells were either kept at 37° C. or exposed to heat shock at 42° C. for 1 hour followed by a 16 hour recovery period at 37° C. in the presence or absence of different concentrations of the test compound. After recovery the expression of YFP or GFP which is in straight correlation with the promoter activity of Hsp70 or Hsp27 genes was followed by measuring the fluorescence intensity of the cells by flow cytometry. Fluorescence intensity is in straight correlation with the amount of fluorescent protein (GFP or YFP) produced under the control of hsp promoter. The mean fluorescence intensity of YFP or GFP produced is shown as “Hsp promoter activity”.
Cells were homogenously distributed on 6-well plates in 1×10^5 cells/well density. B16-pHsp25-GFP and B16-pHsp70-YFP melanoma cells were grown in RPMI-1640 medium supplemented with 10% Fetal bovine serum (FBS), penicillin (200 units/ml), streptomycin (200 μg/ml) and 2 mM L-Glutamine. […] The changes in cells' fluorescence were detected using BD FACSCalibur flow cytometer.
SY-SY5Y and B16 cells were extracted in NP-40 lysis buffer (PBS pH 7.4, 1% protease inhibitor coctail and 1% Triton X-100). […] The immune complexes were detected with chemo-luminescent substrate of peroxidase according to the supplier's instructions. Images taken from the membranes were analyzed using AlphaEase FC software.

SKH-1 hairless mice = assay: UVB induced skin edema in SKH-1 hairless mice; assay type: in vivo, mouse
Protocol: To evaluate the effects of systemic administration of Ex. 23 on UVB induced edema 16 SKH-1 hairless mice were divided into two groups of 8 animals each. Group 1 mice (Control) were exposed to 230 mJ/cm^2 UVB consecutively for 2 days (a total cumulative UVB dose of 460 mJ/cm^2), which evoked edema as described by Athar et al. (Tox. Appl. Pharmacol. 195: 370-378, 2004). Group 2 mice received Ex 23. (10 mg/kg) intraperitoneally 30 min before the first UV treatment. The administration of the compound Ex. 23 was repeated 24 and 48 hours later. UVB-induced skin edema was monitored by measuring the increase in dorsal skin thickness using an ultrasound skin scanner (22 MHz).

Hsp27 = assay: Other in vitro effects, Hsp27 (Table 3); assay type: cell-based; parameters: key: +: co-inducing activity; −: silencing activity; 0: with the experimental methods applied no other HSP modulating effects could be identified
Protocol: as §1

B16F10 melanoma cells = assay: Lysosomal destabilization, FITC-conjugated dextran fluorescence; assay type: cell-based, mouse
Source text: Emerging evidence argues that both classic apoptosis pathways and lysosomal death pathways must be suppressed for effective development and progression of cancer. Tumor invasion and metastasis are associated with altered lysosomal trafficking and increased expression of the lysosomal proteases termed cathepsins. […] Normal cells respond to death stimuli by undergoing caspase-dependent apoptosis, the best characterized form of programmed cell death. In contrast, cancer cells frequently escape spontaneous and therapy-induced caspase activation due to acquired mutations in the apoptotic machinery. Apoptosis-resistant cancer cells are, however, not completely resistant to cell death, but can die via alternative cell death pathways often involving non-caspase proteases such as lysosomal cathepsins. Therefore, development of novel anticancer drugs that can trigger alternative death pathways that are independent of commonly mutated apoptosis-regulating genes is of great importance. […] Lysosomal destabilization could be followed by measuring the fluorescence intensity of the pH sensitive FITC-conjugated dextran. Lysosomal pH was determined by allowing the B16F10 melanoma cells to endocytose different amount of FITC-conjugated dextran (40 kDa) (from 10 mg/ml stock) for 24 h. […] Fluorescence was measured by plate reader using an excitation and emission wavelengths of 485 nm and 538 nm respectively.

## COC(=O)C1=C(CCN(C)C)N(C)C(CCN(C)C)=C(C(=O)OC)C1c1ccc(C(F)(F)F)cc1 [Example 23, Dimethyl 4-(4-trifuoromethylphenyl)-2,6-bis-(2-dimethylaminoethyl)-1-methyl-1,4-dihydropyridine-3,5-dicarboxylate dihydrochloride]
Hsp25
  Other in vitro effects: Hsp25: Hsp25 0
SKH-1 hairless mice; 10 mg/kg i.p. 30 min before first UV, repeated 24 and 48 hours later, FIG. 7
  UVB induced skin edema (increase in skin thickness): substantially protected against edema formation
SKH-1 hairless mice; model in which efficacy was shown
  In vivo efficacy: UVB protection
Hsp27
  Other in vitro effects: Hsp27: Hsp27 0
B16F10 melanoma cells
  Other in vitro effects (lysosomes): lysosome destabilization
B16F10 melanoma cells; Ex. 23 5 μM for 6 hours, compared to Siramesine (20 μm), FIG. 9
  fluorescence intensity of FITC-conjugated dextran (lysosomal pH, lysosomal destabilization): significantly higher fluorescence intensity
